What was measured:
[1] = fluorescence of terminally heat sterilised NAG containing solution; format: physicochemical; conditions: FIG. 3; excitation at 350 nm, emission of 430 nm
Source text: (§1) A simple, reliable and known way to study the cytotoxicity of substances or of medical fluids is to test proliferation as in vitro inhibition of cell growth (ICG) in cultured cells. Another method to get a rough estimation of the amount of amino sugars that is rearranged is measurement of the fluorescence.
The lowest fluorescence is seen at around pH 4.

[2] = test system: human peritoneal mesothelial cells and fibroblasts; conditions: Breborowicz et al 1998; cited from earlier work
[3] = pH change of the solution during sterilisation; format: physicochemical
Source text: NAG and other amino sugars have a major difference from glucose and glucose-like compounds by having one amino group and possibly an acetyl group coupled to the glucose ring.

cultured cells = assay: in vitro inhibition of cell growth (ICG) in cultured cells by heat sterilised NAG solutions; format: cell-based
Source text: Experiments in which measurements of the percentage of inhibition of cell growth (ICG) and fluorescence have been made at varying NAG concentrations, and also at varying pH values, during terminal heat sterilisation are illustrated in FIGS. 1-4. The results of the experiments imply that the concentration of the amino sugar/sugars should be optimised.
as §1
More precisely, from the graph in FIG. 1 it can be seen that the inhibition of cell growth reaches a maximum with sterilisation of a solution containing about 5% NAG. With increasing NAG concentration the inhibition of cell growth decreases.
The bar diagram in FIG. 2 illustrates the effect of increased NAG concentration at different pH values during terminal heat sterilisation.

peritoneum = conditions: cited from earlier work
[4] = analysis of degradation products (3-DG, 3,4-DGE) in heat sterilised solutions by HPLC; format: physicochemical; conditions: heat sterilised NAG solutions
Source text: This cytotoxicity depends on the formation of toxic degradation products from said amino sugars. […] This fact has not been known previously and forms the basis for the present invention. It should be noted that the decomposition pattern for an amino sugar solution during heat sterilisation follows specific Maillard reactions giving several different toxic decomposition products. The decomposition pattern differs for e.g. a glucose solution during heat sterilisation, wherein different decomposition products are formed. This difference is illustrated in FIGS. 5a-5d, showing chromatograms when analysing 3-DG and 3,4-DGE in a NAG solution and in a glucose solution, respectively. The difference in degradation is likely due to that the NAG molecules contains groups that allows the Maillard reaction to take place and therefore create a large number of degradation products not seen in a glucose solution.

Row | Compound | pH at which fluorescence is lowest [1] | production of hyaluronan and sulphated glycosaminoglycans [2] | change of pH of the solution during sterilisation [3] | inhibition of cell growth with increasing NAG concentration (cultured cells; FIG. 1, above the maximum at about 5% NAG) | NAG concentration during sterilisation at which inhibition of cell growth reaches a maximum (cultured cells; FIG. 1, terminal heat sterilisation) | inhibition of cell growth, effect of NAG concentration during sterilisation (cultured cells; FIG. 2, 30% versus 1.5% NAG, for all three pH values) | percentage inhibition of cell growth, effect of pH during sterilisation (cultured cells; FIG. 2, pH 3.0 versus pH 5.5 and 7.2) | optimal pH of sterilisation from an in vitro toxicological point of view (cultured cells; NAG containing solution, higher or lower pH gives higher percentage of inhibited growth) | cytotoxicity after heat sterilisation (cultured cells; amino sugars, e.g. NAG, in conventional medical solutions) | effect on the peritoneum of dialysis solution supplemented with N-acetylglucosamine (peritoneum; Wu et al 1998, chronic peritoneal dialysis) | known glucose degradation products found [4] | function of the peritoneum as a dialysis membrane (peritoneum; Wieczorowska et al 1995, fluid supplemented with exogenous hyaluronan)
1 | CC(=O)N[C@H]1C(O)O[C@H](CO)[C@@H](O)[C@@H]1O (stereo partly drawn) [NAG, N-acetylglucosamine] | ~4 | rapidly stimulates | increases during sterilisation | decreases | about 5% | lower after a terminal heat sterilisation at a NAG concentration of 30% than at a NAG concentration of 1.5% | lower after terminal heat sterilisation at a pH of 3.0 than at a pH of 5.5 and 7.2 | 2.5-3.5 | increased cytotoxicity | causes accumulation of glucosaminoglycans in the peritoneal interstitium | none of the known glucose degradation products has been found | –
2 | hyaluronan [reference compound] | – | – | – | – | – | – | – | – | – | – | – | better preserved

Reference: US20060046975A1, “Method for preparing a medical solution for the manufacture of a medicament for peritoneal dialysis” (priority 2002, published 2006)
